According to ChEMBL document CHEMBL4392848, “Proline-based hydroxamates targeting the zinc-dependent deacetylase LpxC: Synthesis, antibacterial properties, and docking studies” (Bioorg Med Chem, 2019):
Converted amounts (≈) assume the structure as drawn.

Tests used:
Enterobacter cloacae = assay: Antibacterial activity against Enterobacter cloacae assessed as diameter of inhibition zone measured after 24 hrs by agar disc diffusion method; assay type: functional; also: test concentration or dose not given here
Escherichia coli [1] = assay: Antibacterial activity against Escherichia coli BL21(DE3) assessed as diameter of inhibition zone measured after overnight incubation by agar disc diffusion method; assay type: functional; also: test concentration or dose not given here
Proteus mirabilis = assay: Antibacterial activity against Proteus mirabilis assessed as diameter of inhibition zone measured after 24 hrs by agar disc diffusion method; assay type: functional; also: test concentration or dose not given here
[2] = target: Matrix metalloproteinase-9 (Homo sapiens, UniProt P14780); assay: Inhibition of human MMP9 using (7-methoxycoumarin-4-yl)acetyl-Pro-Leu-Gly-Leu-(3-(2,4-dinitrophenyl)-L-2,3-diamino-propionyl)Ala-Arg-NH2 as substrate preincubated for 30 mins followed by substrate addition and measured by fluorescence assay
Klebsiella oxytoca = assay: Antibacterial activity against Klebsiella oxytoca assessed as diameter of inhibition zone measured after 24 hrs by agar disc diffusion method; assay type: functional; also: test concentration or dose not given here
Klebsiella pneumoniae = assay: Antibacterial activity against Klebsiella pneumoniae assessed as diameter of inhibition zone measured after 24 hrs by agar disc diffusion method; assay type: functional; also: test concentration or dose not given here
Collagenase 3 = Collagenase 3 (Homo sapiens, UniProt P45452); assay: Inhibition of human MMP13 using (7-methoxycoumarin-4-yl)acetyl-Pro-Leu-Gly-Leu-(3-(2,4-dinitrophenyl)-L-2,3-diamino-propionyl)Ala-Arg-NH2 as substrate preincubated for 30 mins followed by substrate addition and measured by fluorescence assay
[3] = target: 72 kDa type IV collagenase (Homo sapiens, UniProt P08253); assay: Inhibition of human MMP2 using (7-methoxycoumarin-4-yl)acetyl-Pro-Leu-Gly-Leu-(3-(2,4-dinitrophenyl)-L-2,3-diamino-propionyl)Ala-Arg-NH2 as substrate preincubated for 30 mins followed by substrate addition and measured by fluorescence assay
Escherichia coli [4] = assay: Antibacterial activity against Escherichia coli BL21(DE3) measured after 20 hrs by microdilution method; assay type: functional
Klebsiella aerogenes = assay: Antibacterial activity against Enterobacter aerogenes assessed as diameter of inhibition zone measured after 24 hrs by agar disc diffusion method; assay type: functional; also: test concentration or dose not given here
Escherichia coli [5] = assay: Antibacterial activity against Escherichia coli D22 measured after 20 hrs by microdilution method; assay type: functional; conditions: D22, 20 h
Neutrophil collagenase = Neutrophil collagenase (Homo sapiens, UniProt P22894); assay: Inhibition of human MMP8 using (7-methoxycoumarin-4-yl)acetyl-Pro-Leu-Gly-Leu-(3-(2,4-dinitrophenyl)-L-2,3-diamino-propionyl)Ala-Arg-NH2 as substrate preincubated for 30 mins followed by substrate addition and measured by fluorescence assay
Pseudomonas aeruginosa = assay: Antibacterial activity against Pseudomonas aeruginosa assessed as diameter of inhibition zone measured after 24 hrs by agar disc diffusion method; assay type: functional; also: test concentration or dose not given here
[6] = Inhibition of Escherichia coli LpxC C63A mutant using UDP-3-O-[(R)-3-hydroxymyristoyl]-N-acetylglucosamine as substrate measured after 30 mins by fluorescence based microplate assay
Proteus vulgaris = assay: Antibacterial activity against Proteus vulgaris assessed as diameter of inhibition zone measured after 24 hrs by agar disc diffusion method; assay type: functional; also: test concentration or dose not given here
Escherichia coli [7] = assay: Antibacterial activity against Escherichia coli D22 assessed as diameter of inhibition zone measured after overnight incubation by agar disc diffusion method; assay type: functional; also: test concentration or dose not given here
Citrobacter freundii = assay: Antibacterial activity against Citrobacter freundii assessed as diameter of inhibition zone measured after 24 hrs by agar disc diffusion method; assay type: functional; also: test concentration or dose not given here

Sequence of Neutrophil collagenase (P22894 whole entry, the tested form may be a part): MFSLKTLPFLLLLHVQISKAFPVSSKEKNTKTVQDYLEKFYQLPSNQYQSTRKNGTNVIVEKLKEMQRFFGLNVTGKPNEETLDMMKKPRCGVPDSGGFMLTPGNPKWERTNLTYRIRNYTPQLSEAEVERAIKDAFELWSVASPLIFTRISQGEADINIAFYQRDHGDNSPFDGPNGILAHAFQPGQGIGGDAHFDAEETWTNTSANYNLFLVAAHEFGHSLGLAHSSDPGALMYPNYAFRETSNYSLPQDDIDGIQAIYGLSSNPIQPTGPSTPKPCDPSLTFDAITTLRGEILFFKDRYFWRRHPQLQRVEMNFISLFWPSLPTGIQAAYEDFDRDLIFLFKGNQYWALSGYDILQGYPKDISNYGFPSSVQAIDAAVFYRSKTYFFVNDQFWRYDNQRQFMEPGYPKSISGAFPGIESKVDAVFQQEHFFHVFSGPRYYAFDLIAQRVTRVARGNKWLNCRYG
Sequence of Matrix metalloproteinase-9 (P14780 whole entry, the tested form may be a part): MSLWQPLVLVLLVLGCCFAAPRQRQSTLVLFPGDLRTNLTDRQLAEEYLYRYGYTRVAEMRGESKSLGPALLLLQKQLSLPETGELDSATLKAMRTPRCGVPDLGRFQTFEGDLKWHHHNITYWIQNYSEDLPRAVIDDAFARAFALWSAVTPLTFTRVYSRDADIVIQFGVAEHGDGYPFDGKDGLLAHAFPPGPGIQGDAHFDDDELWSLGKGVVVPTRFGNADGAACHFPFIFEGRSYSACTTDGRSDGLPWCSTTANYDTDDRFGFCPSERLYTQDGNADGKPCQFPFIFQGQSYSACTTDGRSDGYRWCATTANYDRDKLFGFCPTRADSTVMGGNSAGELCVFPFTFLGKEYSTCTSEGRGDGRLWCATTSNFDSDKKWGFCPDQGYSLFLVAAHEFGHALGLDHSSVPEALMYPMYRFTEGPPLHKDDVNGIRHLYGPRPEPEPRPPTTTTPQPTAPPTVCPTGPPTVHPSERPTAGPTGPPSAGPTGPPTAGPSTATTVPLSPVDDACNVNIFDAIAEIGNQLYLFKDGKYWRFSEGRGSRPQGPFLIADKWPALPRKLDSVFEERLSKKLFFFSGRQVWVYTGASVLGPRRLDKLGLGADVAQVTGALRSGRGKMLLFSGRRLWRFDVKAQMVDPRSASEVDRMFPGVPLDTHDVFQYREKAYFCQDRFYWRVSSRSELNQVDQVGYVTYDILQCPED
Sequence of 72 kDa type IV collagenase (P08253 whole entry): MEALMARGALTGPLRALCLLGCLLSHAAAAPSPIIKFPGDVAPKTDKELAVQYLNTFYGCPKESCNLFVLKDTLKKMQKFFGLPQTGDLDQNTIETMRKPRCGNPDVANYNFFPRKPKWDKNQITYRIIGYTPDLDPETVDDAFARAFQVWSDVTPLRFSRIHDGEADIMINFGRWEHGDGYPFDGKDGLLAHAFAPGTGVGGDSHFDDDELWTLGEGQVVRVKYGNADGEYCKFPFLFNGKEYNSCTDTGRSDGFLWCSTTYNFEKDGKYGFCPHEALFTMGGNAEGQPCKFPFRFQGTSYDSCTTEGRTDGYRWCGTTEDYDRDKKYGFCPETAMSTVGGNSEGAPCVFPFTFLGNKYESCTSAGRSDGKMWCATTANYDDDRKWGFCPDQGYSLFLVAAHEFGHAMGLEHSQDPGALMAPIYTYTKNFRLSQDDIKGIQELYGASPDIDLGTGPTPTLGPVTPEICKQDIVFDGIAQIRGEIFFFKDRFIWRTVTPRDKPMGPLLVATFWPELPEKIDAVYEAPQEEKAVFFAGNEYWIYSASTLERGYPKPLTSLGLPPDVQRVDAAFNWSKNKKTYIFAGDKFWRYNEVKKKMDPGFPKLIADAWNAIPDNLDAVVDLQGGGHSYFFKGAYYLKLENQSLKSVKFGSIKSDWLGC

Row | SMILES | diameter of the inhibition zone (DIZ) (Enterobacter cloacae) | diameter of the inhibition zone (DIZ) (Escherichia coli [1]) | diameter of the inhibition zone (DIZ) (Proteus mirabilis) | IC50 [2] | diameter of the inhibition zone (DIZ) (Klebsiella oxytoca) | diameter of the inhibition zone (DIZ) (Klebsiella pneumoniae) | IC50 (Collagenase 3) | IC50 [3] | MIC (Escherichia coli [4]) | diameter of the inhibition zone (DIZ) (Klebsiella aerogenes) | MIC (Escherichia coli [5]) | IC50 (Neutrophil collagenase) | diameter of the inhibition zone (DIZ) (Pseudomonas aeruginosa) | IC50 [6] | Ki [6] | diameter of the inhibition zone (DIZ) (Proteus vulgaris) | diameter of the inhibition zone (DIZ) (Escherichia coli [7]) | diameter of the inhibition zone (DIZ) (Citrobacter freundii)
1 | O=C(NO)[C@@H]1CCCN1C(=O)c1ccc(C#Cc2ccc(CN3CCOCC3)cc2)cc1 | 13 mm | 13.2 mm | 12 mm | 4000 nM | 9 mm | 15 mm | 280 nM | 570 nM | 64 µM (≈ 27.7 µg/mL) | 15 mm | 16 µM (≈ 6.94 µg/mL) | 2000 nM | <6 mm | 45600 nM | 6300 nM | 9 mm | 20 mm | 12 mm
2 | O=C(NO)[C@@H]1C[C@@H](O)CN1Cc1ccc(C#Cc2ccc(CN3CCOCC3)cc2)cc1 | <6 mm | 12.3 mm | <6 mm | > 10000 nM | <6 mm | 7 mm | > 10000 nM | > 10000 nM | > 256 µM | <6 mm | 8 µM (≈ 3.48 µg/mL) | > 10000 nM | <6 mm | 62100 nM | 8600 nM | <6 mm | 21 mm | <6 mm
3 | O=C(NO)[C@@H]1C[C@H](O)CN1C(=O)c1ccc(C#Cc2ccc(OCCCCCF)cc2)cc1 | – | <6 mm | – | 108 nM | – | – | 0.07 nM | 5 nM | > 256 µM | – | > 256 µM | 21 nM | – | – | – | – | <6 mm | –
4 | O=C(NO)[C@@H]1C[C@@H](O)CN1C(=O)c1ccc(C#Cc2ccc(CN3CCOCC3)cc2)cc1 | <6 mm | 7.5 mm | 9 mm | 9000 nM | <6 mm | 9 mm | 1000 nM | 1000 nM | > 256 µM | 16 mm | 16 µM (≈ 7.19 µg/mL) | 2000 nM | <6 mm | 47900 nM | 6600 nM | <6 mm | 20.7 mm | 10 mm
5 | CC1(C)O[C@@H]2[C@@H](CN(C(=O)c3ccc(C#Cc4ccc(CN5CCOCC5)cc4)cc3)[C@H]2C(=O)NO)O1 | <6 mm | 9 mm | 8 mm | > 10000 nM | 8 mm | 8 mm | > 10000 nM | 3000 nM | > 256 µM | 8 mm | 256 µM (≈ 129 µg/mL) | – | <6 mm | > 200000 nM | > 27600 nM | <6 mm | 10 mm | 11 mm
6 | O=C(NO)[C@@H]1C[C@H](O)CN1C(=O)c1ccc(C#Cc2ccc(CN3CCOCC3)cc2)cc1 | 8 mm | 11.3 mm | 11 mm | 1000 nM | 8 mm | 10 mm | 57 nM | 55 nM | > 256 µM | 15 mm | 16 µM (≈ 7.19 µg/mL) | 198 nM | <6 mm | 29500 nM | 4100 nM | 9 mm | 19.5 mm | 12 mm
7 | O=C(NO)[C@H]1CCCN1C(=O)c1ccc(C#Cc2ccc(CN3CCOCC3)cc2)cc1 | 9 mm | 11.3 mm | 9 mm | 731 nM | 8 mm | 11 mm | 636 nM | 503 nM | > 256 µM | 9 mm | 8 µM (≈ 3.47 µg/mL) | 50 nM | <6 mm | 63400 nM | 8700 nM | <6 mm | 24.7 mm | 12 mm
8 | CCCCCc1ccc(C#Cc2ccc(C(=O)N3C[C@H](O)C[C@H]3C(=O)NO)cc2)cc1 | 8 mm | <6 mm | <6 mm | 845 nM | 7 mm | <6 mm | 11 nM | 151 nM | > 256 µM | <6 mm | 16 µM (≈ 6.73 µg/mL) | 282 nM | <6 mm | 5900 nM | 810 nM | 9 mm | 8 mm | 9 mm
9 | O=C(NO)[C@@H]1CCCN1Cc1ccc(C#Cc2ccc(CN3CCOCC3)cc2)cc1 | 20 mm | 15 mm | 18 mm | > 10000 nM | 13 mm | 20 mm | 939 nM | 3000 nM | 128 µM (≈ 53.7 µg/mL) | 18 mm | 4 µM (≈ 1.68 µg/mL) | 5000 nM | <6 mm | 10500 nM | 1400 nM | 12 mm | 25 mm | 16 mm
10 | CCCCCc1ccc(C#Cc2ccc(C(=O)N3C[C@@H](O)C[C@H]3C(=O)NO)cc2)cc1 | <6 mm | <6 mm | 7 mm | 120 nM | 7 mm | <6 mm | 0.7 nM | 3 nM | > 256 µM | <6 mm | > 128 µM | 15 nM | <6 mm | > 200000 nM | > 27600 nM | 8 mm | 8 mm | 7 mm
